Experimental data: patent publication US7053070B2, “Pyrido[2,3-d]pyrimidine-2,7-diamine kinase inhibitors” (Warner-Lambert Company, priority 2000, dated 2006)

What was measured:
[1] = target: cdk2/cyclinA (Homo sapiens, UniProt P24941); assay: Cyclin dependent kinase 2 assay (cdk2/cyclinA), 32P incorporation, filter plate; assay type: biochemical; details: retinoblastoma substrate, 12 mM ATP, 25° C., 15 minutes; read-out: Inhibition of Cdks: IC50 Cdk2/A
Protocol: (§1) Cyclin Dependent Kinase 1 and 2 Assays (cdk1/cyclinB, cdk2/cyclinA, cdk2/cyclinE)
(§2) Enzyme assays for IC50 determinations and kinetic evaluation are performed in a 96-well filter plate (Millipore MADVN6550) in a total volume of 0.1 mL of 20 mM TRIS (tris[hydroxymethyl]aminomethane), at pH 7.4, 50 mM NaCl, 1 mM dithiothreitol, 10 mM MgCl2, […] containing 0.25 μCi of [^32P]ATP, 20 ng of enzyme (either cdk1/B, cdk2/A, or cdk2E), 1 μg retinoblastoma and appropriate dilutions of the particular invention compound. All components except the ATP are added to the wells, and the plate is placed on a plate mixer for 2 minutes. The reaction is begun by addition of [^32P]ATP, and the plate is incubated at 25° C. for 15 minutes. The reaction is terminated by addition of 0.1 mL of 20% TCA. The plate is kept at 4° C. for at least 1 hour to allow the substrate to precipitate. The wells are then washed 5 times with 0.2 mL of 10% TCA and ^32P incorporation determined with a beta plate counter (Wallac Inc., Gaithersburg, Md.).

[2] = target: T1, PDGF-β receptor tyrosine kinase (PDGFr) (Mus musculus, UniProt P05622); assay: PDGF Receptor Tyrosine Kinase Assay; assay type: biochemical; details: glutamate-tyrosine co-polymer substrate; for inhibition at 50 µM: at 50 μM compound, read-out: Inhibition of Tyrosine Kinases: % Inhibition at 50 μM PDGFr; for IC50: read-out: Inhibition of Tyrosine Kinases: IC50 in parenthesis PDGFr
T1 construct: amplify a fragment of DNA that codes for the intracellular tyrosine kinase domain; made in house; host or cells: SF9 insect cells (baculovirus); crude cell lysate used
T1 sequence (P05622 599-961 limits assumed): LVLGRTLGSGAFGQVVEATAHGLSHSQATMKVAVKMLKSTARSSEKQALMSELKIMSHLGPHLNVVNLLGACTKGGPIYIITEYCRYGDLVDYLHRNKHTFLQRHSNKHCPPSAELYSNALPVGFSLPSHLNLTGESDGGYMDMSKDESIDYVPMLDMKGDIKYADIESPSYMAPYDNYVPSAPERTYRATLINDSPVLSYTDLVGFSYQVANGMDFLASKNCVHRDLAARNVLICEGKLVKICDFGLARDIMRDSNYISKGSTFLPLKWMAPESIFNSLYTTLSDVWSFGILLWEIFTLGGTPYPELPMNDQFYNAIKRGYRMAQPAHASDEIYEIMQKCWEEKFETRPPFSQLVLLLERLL
Excerpt: (§3) PDGF and FGF Receptor Tyrosine Kinase Assays
(§4) Full-length cDNAs for the mouse PDGF-β and human FGF-1 (flg) receptor tyrosine kinases are obtained from J. Escobedo and prepared as described in J. Biol. Chem. 1991; 262:1482-1487. PCR primers are designed to amplify a fragment of DNA that codes for the intracellular tyrosine kinase domain. The fragment is inserted into a baculovirus vector, cotransfected with AcMNPV DNA, and the recombinant virus isolated. SF9 insect cells are infected with the virus to overexpress the protein, and the cell lysate is used for the assay. Assays are performed in 96-well plates (100 μL/incubation/well), and conditions are optimized to measure the incorporation of ^32P from γ^32P-ATP into a glutamate-tyrosine co-polymer substrate. Briefly, to each well is added 82.5 μL of incubation buffer containing 25 mM Hepes (pH 7.0), 150 mM NaCl, 0.1% Triton X-100, 0.2 mM PMSF, 0.2 mM Na3VO4, 10 mM MnCl2, and 750 μg/mL of Poly (4:1) glutamate-tyrosine followed by 2.5 μL of inhibitor and 5 μL of enzyme lysate (7.5 μg/μL FGF-TK or 6.0 μg/μL PDGF-TK) to initiate the reaction. Following a 10-minute incubation at 25° C. […] of γ^32P-ATP (0.4 μCi plus 50 μM ATP) is added to each well, and samples are incubated for an additional 10 minutes at 25° C. The reaction is terminated by the addition of 100 μL of 30% trichloroacetic acid (TCA) containing 20 mM sodium pyrophosphate and precipitation of material onto glass fiber mats (Wallac). Filters are washed 3 times with 15% TCA containing 100 mM sodium pyrophosphate, and the radioactivity retained on the filters counted in a Wallac 1250 Betaplate reader. Nonspecific activity is defined as radioactivity retained on the filters following incubation of samples with buffer alone (no enzyme). Specific enzymatic activity (enzyme plus buffer) is defined as total activity minus nonspecific activity.

[3] = target: cdk2/cyclinE (Homo sapiens, UniProt P24941); assay: Cyclin dependent kinase 2 assay (cdk2/cyclinE), 32P incorporation, filter plate; assay type: biochemical; details: retinoblastoma substrate, 12 mM ATP, 25° C., 15 minutes; read-out: Inhibition of Cdks: IC50 Cdk2/E
Protocol: as §1, §2

[4] = target: cdk1/cyclinB (Homo sapiens, UniProt P06493); assay: Cyclin dependent kinase 1 assay (cdk1/cyclinB), 32P incorporation, filter plate; assay type: biochemical; details: retinoblastoma substrate, 12 mM ATP, 25° C., 15 minutes; read-out: Inhibition of Cdks: IC50 Cdk1/B
Chain of cdk1/cyclinB (P06493 whole entry, species assumed): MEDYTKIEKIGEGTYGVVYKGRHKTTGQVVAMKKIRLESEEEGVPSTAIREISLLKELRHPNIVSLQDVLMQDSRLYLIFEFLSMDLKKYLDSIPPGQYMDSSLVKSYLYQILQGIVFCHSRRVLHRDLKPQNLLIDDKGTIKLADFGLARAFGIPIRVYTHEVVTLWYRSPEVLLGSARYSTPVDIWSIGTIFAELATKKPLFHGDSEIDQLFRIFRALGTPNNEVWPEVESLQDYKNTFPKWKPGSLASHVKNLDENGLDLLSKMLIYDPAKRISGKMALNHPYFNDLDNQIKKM
Chain of cdk1/cyclinB (P14635 whole entry partner, species assumed): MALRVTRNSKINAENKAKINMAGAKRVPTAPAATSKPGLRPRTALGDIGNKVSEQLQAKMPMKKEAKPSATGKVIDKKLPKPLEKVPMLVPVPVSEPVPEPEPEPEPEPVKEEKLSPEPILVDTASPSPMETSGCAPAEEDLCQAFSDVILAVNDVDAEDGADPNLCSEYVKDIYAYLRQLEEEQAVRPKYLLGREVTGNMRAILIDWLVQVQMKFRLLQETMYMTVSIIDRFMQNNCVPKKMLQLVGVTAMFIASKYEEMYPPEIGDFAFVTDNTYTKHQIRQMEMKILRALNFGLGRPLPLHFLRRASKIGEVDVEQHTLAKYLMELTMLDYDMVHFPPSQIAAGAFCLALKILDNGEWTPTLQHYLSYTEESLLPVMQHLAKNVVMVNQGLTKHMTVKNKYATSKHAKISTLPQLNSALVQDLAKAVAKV
Protocol: as §1, §2

[5] = target: cdk4/cyclinD (Homo sapiens, UniProt P11802); assay: Cyclin Dependent Kinase 4 (cdk-4) Assay, 32P incorporation, filter plate; assay type: biochemical; details: retinoblastoma substrate, 25 μM ATP, 25° C., 15 minutes; read-out: Inhibition of Cdks: IC50 Cdk4D
Chain of cdk4/cyclinD (P11802 whole entry, species assumed): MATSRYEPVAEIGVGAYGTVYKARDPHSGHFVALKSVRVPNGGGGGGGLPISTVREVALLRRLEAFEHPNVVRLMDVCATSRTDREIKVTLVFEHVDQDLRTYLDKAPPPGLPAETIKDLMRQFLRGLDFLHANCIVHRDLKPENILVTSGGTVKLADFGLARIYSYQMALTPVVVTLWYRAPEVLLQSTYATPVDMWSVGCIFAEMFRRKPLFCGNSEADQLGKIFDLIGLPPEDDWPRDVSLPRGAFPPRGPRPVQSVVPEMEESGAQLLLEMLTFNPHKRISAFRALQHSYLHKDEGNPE
Chain of cdk4/cyclinD (P24385 whole entry partner, species assumed): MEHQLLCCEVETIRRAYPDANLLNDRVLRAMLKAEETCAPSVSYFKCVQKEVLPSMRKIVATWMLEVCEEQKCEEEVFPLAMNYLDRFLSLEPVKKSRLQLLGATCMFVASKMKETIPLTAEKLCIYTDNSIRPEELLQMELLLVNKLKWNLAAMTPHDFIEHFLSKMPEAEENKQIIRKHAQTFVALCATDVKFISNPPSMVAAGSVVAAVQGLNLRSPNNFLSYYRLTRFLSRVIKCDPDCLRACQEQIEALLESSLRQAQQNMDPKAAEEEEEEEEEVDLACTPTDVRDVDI
Protocol: Cyclin Dependent Kinase 4 (cdk-4) Assay
Enzyme assays for IC50 determinations and kinetic evaluation are performed in 96-well filter plates (Millipore MADVN6550). The total volume is 0.1 mL containing a final concentration of 20 mM TRIS (tris[hydroxymethyl]aminomethane), at pH 7.4, 50 mM NaCl, 1 mM dithiothreitol, 10 mM MgCl2, 25 μM ATP containing 0.25 μCi of [^32P]ATP, 20 ng of cdk4, 1 μg of retinoblastoma, and appropriate dilutions of a compound of the present invention. All components except the ATP are added to the wells, and the plate is placed on a plate mixer for 2 minutes. The reaction is started by adding [^32P]ATP, and the plate is incubated at 25° C. for 15 minutes. The reaction is terminated by addition of 0.1 mL of 20% trichloroacetic acid (TCA). The plate is kept at 4° C. for at least 1 hour to allow the substrate to precipitate. The wells are then washed 5 times with 0.2 mL of 10% TCA and ^32P incorporation is determined with a beta plate counter (Wallac Inc., Gaithersburg, Md.).

[6] = target: T2, FGF-1 (flg) receptor tyrosine kinase (FGFr) (Homo sapiens, UniProt P11362); assay: FGF Receptor Tyrosine Kinase Assay; assay type: biochemical; details: glutamate-tyrosine co-polymer substrate; for inhibition at 50 µM: at 50 μM compound, read-out: Inhibition of Tyrosine Kinases: % Inhibition at 50 μM FGFr; for IC50: read-out: Inhibition of Tyrosine Kinases: IC50 in parenthesis FGFr
T2 construct: amplify a fragment of DNA that codes for the intracellular tyrosine kinase domain; made in house; host or cells: SF9 insect cells (baculovirus); crude cell lysate used
T2 sequence (P11362 478-767 limits assumed): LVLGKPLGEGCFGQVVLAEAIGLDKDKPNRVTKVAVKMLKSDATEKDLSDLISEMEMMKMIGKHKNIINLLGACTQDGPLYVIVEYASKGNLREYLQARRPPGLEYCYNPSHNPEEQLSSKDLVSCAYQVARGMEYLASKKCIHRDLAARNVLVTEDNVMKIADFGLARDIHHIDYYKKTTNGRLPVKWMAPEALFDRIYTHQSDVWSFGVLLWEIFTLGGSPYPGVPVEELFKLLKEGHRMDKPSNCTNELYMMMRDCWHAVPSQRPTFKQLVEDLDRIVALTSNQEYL
Excerpt: as §3, §4

Structure (SMILES)	IC50 [1] [nM]	inhibition at 50 µM [2] [%]	IC50 [2] [nM]	IC50 [3] [nM]	IC50 [4] [nM]	IC50 [5] [nM]	inhibition at 50 µM [6] [%]	IC50 [6] [nM]	melting point
Cc1cc(Nc2ncc3ccc(NC(=O)Nc4ccc(Cl)cc4)nc3n2)ccc1F [Compound 47, 1-(4-Chloro-phenyl)-3-[2-(4-fluoro-3-methyl-phenylamino)-pyrido[2,3-d]pyrimidin-7-yl]-urea]	> 5000			> 5000	> 5000	> 5000	10.5		> 250 °C
O=C(Nc1nc2nc(Nc3ccc(N4CCNCC4)cc3)ncc2cc1Br)NC1CCCCC1 [Compound 55, 1-[6-Bromo-2-(4-piperazin-1-yl-phenylamino)-pyrido[2,3-d]pyrimidin-7-yl]-3-cyclohexyl-urea]	> 5000		33	> 5000	> 5000	300		151	195 °C (dec.)
CN(C)CCNC(=O)Nc1ccc2cnc(Nc3ccc(F)cc3)nc2n1 [Compound 99, 1-(2-Dimethylamino-ethyl)-3-[2-(4-fluoro-phenylamino)-pyrido[2,3-d]pyrimidin-7-yl]-urea]	1010			410	1810	> 5000			251 to 255 °C
CC(=O)N1CCN(c2ccc(Nc3ncc4ccc(NC(=O)NCCCN5CCOCC5)nc4n3)cc2)CC1 [Compound 103, 1-{2-[4-(4-Acetyl-piperazin-1-yl)-phenylamino]-pyrido[2,3-d]pyrimidin-7-yl}-3-(3-morpholin-4-yl-propyl)-urea]	> 5000			> 5000	> 5000	> 5000			221 to 225 °C (dec.)
C[C@@H]1CN(c2ccc(Nc3ncc4cc(Cl)c(NC(=O)NC(C)(C)C)nc4n3)cc2)C[C@H](C)N1 [Compound 104, 1-tert-Butyl-3-{6-chloro-2-[4-(cis-3,5-dimethyl-piperazin-1-yl)-phenylamino]-pyrido[2,3-d]pyrimidin-7-yl}-urea]	> 5000			> 5000	> 5000	185			205 °C (dec.)
CCCNC(=O)Nc1cc(C)c2cnc(Nc3ccc(N4CCNCC4)cc3)nc2n1 [Compound 111, 1-[5-Methyl-2-(4-piperazin-1-yl-phenylamino)-pyrido[2,3-d]pyrimidin-7-yl]-3-propyl-urea]	> 5000			> 5000	> 5000	> 5000			223 to 225 °C
Cc1c(F)c(NC(=O)NC(C)C)nc2nc(Nc3ccc(N4CCNCC4)cc3)ncc12 [Compound 114, 1-[6-Fluoro-5-methyl-2-(4-piperazin-1-yl-phenylamino)-pyrido[2,3-d]pyrimidin-7-yl]-3-isopropyl-urea]	> 5000			> 5000	> 5000	> 5000			208 °C (dec.)
Cc1cc2cnc(Nc3ccc(N4C[C@@H](C)N[C@@H](C)C4)cc3)nc2nc1NC(=O)NC(C)(C)C [Compound 117, 1-tert-Butyl-3-{2-[4(cis-3,5-dimethyl-piperazin-1-yl)-phenylamino]-6-methyl-pyrido[2,3-d]pyrimidin-7-yl}-urea]	> 5000		81	4000	> 5000	76		61	

These reach a lower IC50 [3]. Values come first.

IC50 [1] [nM]	inhibition at 50 µM [2] [%]	IC50 [2] [nM]	IC50 [3] [nM]	IC50 [4] [nM]	IC50 [5] [nM]	inhibition at 50 µM [6] [%]	IC50 [6] [nM]	melting point	Structure (SMILES)
60	94.4	593	130	219	6	93.7			CC(C)(C)NC(=O)Nc1ccc2cnc(Nc3ccc(N4CCNCC4)cc3)nc2n1 [Compound 1, 1-tert-Butyl-3-[2-(4-piperazin-1-yl-phenylamino)-pyrido[2,3-d]pyrimidin-7-yl]-urea]
10			20	27	5	89.8			O=C(Nc1ccc2cnc(Nc3ccc(N4CCNCC4)cc3)nc2n1)NC1CCCCC1 [Compound 9, 1-Cyclohexyl-3-[2-(4-piperazin-1-yl-phenylamino)-pyrido[2,3-d]pyrimidin-7-yl]-urea]
92		131	125	159	11		284		O=C(Nc1nc2nc(Nc3ccc(N4CCNCC4)cc3)ncc2cc1F)NC1CCCCC1 [Compound 11, 1-Cyclohexyl-3-[6-fluoro-2-(4-piperazin-1-yl-phenylamino)-pyrido[2,3-d]pyrimidin-7-yl]-urea]
54	21.9		110	552	45	67.4		227 °C (dec.)	CC(C)(C)NC(=O)Nc1ccc2cnc(Nc3ccccc3)nc2n1 [Compound 45, 1-tert-Butyl-3-(2-phenylamino-pyrido[2,3-d]pyrimidin-7-yl)-urea]
	17.5		300	75	> 5000	19.5		230 °C (dec.)	Cc1cc(Nc2ncc3ccc(NC(=O)NC(C)(C)C)nc3n2)ccc1F [Compound 46, 1-tert-Butyl-3-[2-(4-fluoro-3-methyl-phenylamino)-pyrido[2,3-d]pyrimidin-7-yl]-urea]
92			230	461	460	18.6		241 °C (dec.)	CC(C)(C)OC(=O)N1CCN(c2ccc(Nc3ncc4ccc(NC(=O)NC5CCCCC5)nc4n3)cc2)CC1 [Compound 80]
278			345	862	> 5000			238 to 240 °C	O=C(NCCO)Nc1ccc2cnc(Nc3ccc(F)cc3)nc2n1 [Compound 97, 1-[2-(4-Fluoro-phenylamino)-pyrido[2,3-d]pyrimidin-7-yl]-3-(2-hydroxy-ethyl)-urea]
157			140	442	1050			217 to 220 °C	NCCNC(=O)Nc1ccc2cnc(Nc3ccc(F)cc3)nc2n1 [Compound 98, 1-(2-Amino-ethyl)-3-[2-(4-fluoro-phenylamino)-pyrido[2,3-d]pyrimidin-7-yl]-urea]
